{"source": "patent US20250000805A1", "about": "“VALBENAZINE COMPOSITIONS” (Neurocrine Biosciences, Inc., priority 2021, published 2025)", "test": "Stability of dissolution standards and dissolution samples at ambient lab conditions", "format": "physicochemical", "protocol": "40.5±4.0 mg of valbenazine ditosylate reference standard (equivalent to 22.22 mg of valbenazine free base) was added to a 250-mL volumetric flask. Diluent (0.1 N HCl dissolution media) was added to the flask, up to about 75% of the volume of the flask. The contents of the flask were mixed well, and sonicated if necessary, to provide a standard solution containing 0.0889 mg/mL valbenazine free base. The standard was stable for 17 days, stored at ambient lab conditions.\n10.12±1.0 mg of valbenazine ditosylate reference standard (equivalent to 5.55 mg of valbenazine free base) was added to a 250-mL volumetric flask. Diluent (0.1N HCl dissolution media) was added to the flask, up to about 75% of the volume of the flask. […]\n(§1) Dissolution was measured according to Table 8, above. After completion of the dissolution, the end temperature and observations for each vessel were recorded. […]\nas §1\n(§2) Dissolution was measured according to Table 9, above. After completion of the dissolution, the end temperature and observations for each vessel were recorded. […]\nas §2"}
{"smiles": "COc1cc2c(cc1OC)[C@H]1C[C@@H](OC(=O)[C@@H](N)C(C)C)[C@H](CC(C)C)CN1CC2.Cc1ccc(S(=O)(=O)O)cc1.Cc1ccc(S(=O)(=O)O)cc1", "note": "[L-Valine, (2R,3R,11bR)-1,3,4,6,7,11b-hexahydro-9,10-dimethoxy-3-(2-methylpropyl)-2H-benzo[a]quinolizin-2-yl ester, 4-methylbenzenesulfonate (1:2)]", "values": [{"measurement": "time the dissolution standard was stable", "setting": "0.0222 mg/mL valbenazine free base in 0.1N HCl", "value": 7, "unit": "days"}, {"measurement": "time the dissolution standard was stable", "setting": "0.0889 mg/mL valbenazine free base in 0.1 N HCl", "value": 17, "unit": "days"}]}
